According to patent US12692249B2, “WDR5 inhibitors and modulators” (Vanderbilt University, priority 2019, dated 2026):

Columns and labels:
[1] = test system: MV4:11 human cancer cell lines; assay: Cellular viability / anti-proliferative assay, CellTiter-Glo, 5 day protocol; format: cell-based; details: Homo sapiens, MV4-11, 120 h, MV4:11 cells; 5 day incubation; CellTiter-Glo; mean of at least two replicates; read-out: GI50 on cellular proliferation of MV4:11 human cancer cell lines
How it was run: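 Luminescent ATP-based viability (CellTiter-Glo) after a 5-day exposure gave GI50 via sigmoidal fitting, averaged over two or more replicates. Compounds spanned 22 two-fold steps down from 30 μM at 0.3% DMSO, on 200 MV-4-11 cells per well grown in IMDM plus 10% FBS.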

WDR5 = WDR5 (Homo sapiens, UniProt P61964); assay: TR-FRET competition binding assay, displacement of 10mer-Thr-FAM MLL peptide probe from His-tagged WDR5; details: WDR5-His tag (residues 24-334) 2 nM; 10mer-Thr-FAM 150 nM; 60 min, room temperature; read-out: Ki for Inhibition of WDR5 by TR-FRET assay

SMILES	GI50 [1]	Ki (WDR5)
COc1cc(C(=O)Nc2ncco2)c2nc(C)cc(N3CCc4c(cc(Cn5ccnc5)cc4-c4cn(C)nc4C(F)(F)F)C3=O)c2c1 [Example 200, 4-(7-((1H-Imidazol-1-yl)methyl)-5-(1-methyl-3-(trifluoromethyl)-1H-pyrazol-4-yl)-1-oxo-3,4-dihydroisoquinolin-2(1H)-yl)-6-methoxy-2-methyl-N-(oxazol-2-yl)quinoline-8-carboxamide]	28 nM	< 0.02 nM
COc1cc(-c2cn[nH]c2)c2nc(C)cc(N3CCc4c(cc(Cn5ccnc5)cc4-c4cn(C)nc4C(F)(F)F)C3=O)c2c1 [Example 201, 7-((1H-imidazol-1-yl)methyl)-2-(6-methoxy-2-methyl-8-(1H-pyrazol-4-yl)quinolin-4-yl)-5-(1-methyl-3-(trifluoromethyl)-1H-pyrazol-4-yl)-3,4-dihydroisoquinolin-1(2H)-one]	23 nM	0.023 nM
Cc1cc(N2CCc3c(cc(Cn4ccnc4)cc3-c3cn(C)nc3C(F)(F)F)C2=O)c2cc(N3CC(F)C3)cc(C#N)c2n1 [Example 203, 4-(7-((1H-Imidazol-1-yl)methyl)-5-(1-methyl-3-(trifluoromethyl)-1H-pyrazol-4-yl)-1-oxo-3,4-dihydroisoquinolin-2(1H)-yl)-6-(3-fluoroazetidin-1-yl)-2-methylquinoline-8-carbonitrile]	49 nM	0.025 nM
CCc1cc(C#N)c2nccc(N3CCc4c(cc(Cn5ccnc5)cc4-c4cn(C)nc4C(F)(F)F)C3=O)c2c1 [Example 204, 4-(7-((1H-Imidazol-1-yl)methyl)-5-(1-methyl-3-(trifluoromethyl)-1H-pyrazol-4-yl)-1-oxo-3,4-dihydroisoquinolin-2(1H)-yl)-6-ethylquinoline-8-carbonitrile]	22 nM	< 0.02 nM
COc1cnc2c(C)ccc(N3CCc4c(cc(Cn5ccnc5)cc4-c4cn(C)nc4C(F)(F)F)C3=O)c2c1 [Example 206, 7-((1H-Imidazol-1-yl)methyl)-2-(3-methoxy-8-methylquinolin-5-yl)-5-(1-methyl-3-(trifluoromethyl)-1H-pyrazol-4-yl)-3,4-dihydroisoquinolin-1(2H)-one]	43 nM	0.022 nM
CCc1cc(N2CCn3cnnc3C2)c2nccc(N3CCc4c(cc(Cn5ccnc5)cc4-c4cn(C)nc4C(F)(F)F)C3=O)c2c1 [Example 208, 7-((1H-Imidazol-1-yl)methyl)-2-(8-(5,6-dihydro-[1,2,4]triazolo[4,3-a]pyrazin-7(8H)-yl)-6-ethylquinolin-4-yl)-5-(1-methyl-3-(trifluoromethyl)-1H-pyrazol-4-yl)-3,4-dihydroisoquinolin-1(2H)-one]	55 nM	< 0.02 nM
CCc1cc(C(=O)NCCNC(=O)c2cnccn2)c2nccc(N3CCc4c(cc(Cn5ccnc5)cc4-c4cn(C)nc4C(F)(F)F)C3=O)c2c1 [Example 209, 4-(7-((1H-Imidazol-1-yl)methyl)-5-(1-methyl-3-(trifluoromethyl)-1H-pyrazol-4-yl)-1-oxo-3,4-dihydroisoquinolin-2(1H)-yl)-6-ethyl-N-(2-(pyrazine-2-carboxamido)ethyl)quinoline-8-carboxamide]	< 20 nM	< 0.02 nM
CCc1cnc2cncc(N3CCc4c(cc(Cn5ccnc5)cc4-c4cn(C)nc4C(F)(F)F)C3=O)c2c1 [Example 211, 7-((1H-imidazol-1-yl)methyl)-2-(3-ethyl-1,7-naphthyridin-5-yl)-5-(1-methyl-3-(trifluoromethyl)-1H-pyrazol-4-yl)-3,4-dihydroisoquinolin-1(2H)-one]	20 nM	< 0.02 nM
CCc1cc(C(=O)NCCNC(C)=O)c2nccc(N3CCc4c(cc(Cn5ccnc5)cc4-c4cn(C)nc4C(F)(F)F)C3=O)c2c1 [Example 212, 4-(7-((1H-Imidazol-1-yl)methyl)-5-(1-methyl-3-(trifluoromethyl)-1H-pyrazol-4-yl)-1-oxo-3,4-dihydroisoquinolin-2(1H)-yl)-N-(2-acetamidoethyl)-6-ethylquinoline-8-carboxamide]	35 nM	< 0.02 nM

Now from value to compound:

GI50 [1]	Ki (WDR5)	SMILES
< 20 nM	< 0.02 nM	CCc1cc(C(=O)NCCOC)c2nc(C)cc(N3CCc4c(cc(Cn5ccnc5)cc4-c4cn(C)nc4C(F)(F)F)C3=O)c2c1 [Example 190, 4-(7-((1H-Imidazol-1-yl)methyl)-5-(1-methyl-3-(trifluoromethyl)-1H-pyrazol-4-yl)-1-oxo-3,4-dihydroisoquinolin-2(1H)-yl)-6-ethyl-N-(2-methoxyethyl)-2-methylquinoline-8-carboxamide]
< 20 nM	< 0.02 nM	CCc1cc(COC2COC2)c2nccc(N3CCc4c(cc(Cn5ccnc5)cc4-c4cn(C)nc4C(F)(F)F)C3=O)c2c1 [Example 191, 7-((1H-Imidazol-1-yl)methyl)-2-(6-ethyl-8-((oxetan-3-yloxy)methyl)quinolin-4-yl)-5-(1-methyl-3-(trifluoromethyl)-1H-pyrazol-4-yl)-3,4-dihydroisoquinolin-1(2H)-one]
< 20 nM	< 0.02 nM	CCc1cc(C(=O)NCCN(C)C)c2nc(C)cc(N3CCc4c(cc(Cn5ccnc5)cc4-c4cn(C)nc4C(F)(F)F)C3=O)c2c1 [Example 194, 4-(7-((1H-Imidazol-1-yl)methyl)-5-(1-methyl-3-(trifluoromethyl)-1H-pyrazol-4-yl)-1-oxo-3,4-dihydroisoquinolin-2(1H)-yl)-N-(2-(dimethylamino)ethyl)-6-ethyl-2-methylquinoline-8-carboxamide]
< 20 nM	< 0.02 nM	COc1cc(N2CCC(OC)CC2)c2nc(C)cc(N3CCc4c(cc(Cn5ccnc5)cc4-c4cn(C)nc4C(F)(F)F)C3=O)c2c1 [Example 195, 7-((1H-Imidazol-1-yl)methyl)-2-(6-methoxy-8-(4-methoxypiperidin-1-yl)-2-methylquinolin-4-yl)-5-(1-methyl-3-(trifluoromethyl)-1H-pyrazol-4-yl)-3,4-dihydroisoquinolin-1(2H)-one]
< 20 nM	0.02 nM	CCc1cc(N2C[C@H]3CN(C)C[C@H]3C2)c2nc(C)cc(N3CCc4c(cc(Cn5ccnc5)cc4-c4cn(C)nc4C(F)(F)F)C3=O)c2c1 [Example 197, 7-((1H-Imidazol-1-yl)methyl)-2-(6-ethyl-2-methyl-8-((3aR,6aS)-5-methylhexahydropyrrolo[3,4-c]pyrrol-2(1H)-yl)quinolin-4-yl)-5-(1-methyl-3-(trifluoromethyl)-1H-pyrazol-4-yl)-3,4-dihydroisoquinolin-1(2H)-one]
< 20 nM	0.02 nM	COc1cnc2cc(C)cc(N3CCc4c(cc(Cn5ccnc5)cc4-c4cn(C)nc4C(F)(F)F)C3=O)c2c1 [Example 202, 7-((1H-Imidazol-1-yl)methyl)-2-(3-methoxy-7-methylquinolin-5-yl)-5-(1-methyl-3-(trifluoromethyl)-1H-pyrazol-4-yl)-3,4-dihydroisoquinolin-1(2H)-one]
< 20 nM	< 0.02 nM	CCc1cc2c(N3CCc4c(cc(Cn5ccnc5)cc4-c4cn(C)nc4C(F)(F)F)C3=O)ccnc2c(OC)n1 [Example 207, 7-((1H-Imidazol-1-yl)methyl)-2-(6-ethyl-8-methoxy-1,7-naphthyridin-4-yl)-5-(1-methyl-3-(trifluoromethyl)-1H-pyrazol-4-yl)-3,4-dihydroisoquinolin-1(2H)-one]
